Test results published in patent publication US8623830B2, “Compositions containing α-1-antitrypsin and methods for use” (Beth Israel Deaconess Medical Center, Inc., priority 2006, dated 2014).

Key:
[1] = test system: insulin receptor substrate-1 (IRS-1); test: In vivo insulin signaling in skeletal muscle, immunoblotting of IRS-1 phosphorylation; set-up: species or system mouse; conditions: skeletal muscle of new onset diabetic NOD mice, FIG. 1
Procedure: (§1) FIG. 1 is a pair of bar graphs representing the results obtained from studies of insulin signaling in skeletal muscle. The upper graph charts insulin receptor (IR) phosphorylation and the lower graph charts insulin receptor substrate-1 (IRS-1) phosphorylation in control, diabetic, and treated animals.
(§2) In vivo insulin signaling experiments were performed on mice after a 16 hour fast. Mice were injected i.p. with 20 U/kg BW of human insulin (Eli Lilly) or saline. Skeletal muscle (gastronemius) was dissected and frozen in liquid nitrogen for immunoblotting analysis of insulin signaling proteins.
(§3) Skeletal muscle (gastronemius), obtained in the context of our in vivo insulin signaling studies, was homogenized in a modified radioimmunoprecipitation assay (RIPA) buffer containing 50 mM Tris-HCl, 1 mM EDTA, 1% NP-40, 0.25% sodium deoxycholate, 150 mM NaCl, 1 mM PMSF, 200 μM […], supplemented with 1% protease inhibitor cocktail (Sigma), and 1% tyrosine phosphatase inhibitor cocktail (Sigma). Cell homogenates were incubated on ice for 45 minutes to solubilize all proteins, and insoluble portions were removed by centrifugation at 14,000 g at 4° C. for 15 minutes. Whole cell lysates were separated by SDS-polyacrylamide gel electrophoresis (PAGE). […] The blots were quantified using densitometry (Molecular Dynamics, Sunnvale, Calif.).

[2] = test system: insulin receptor (IR); test: In vivo insulin signaling in skeletal muscle, immunoblotting of IR phosphorylation; set-up: species or system mouse; conditions: skeletal muscle of new onset diabetic NOD mice, FIG. 1
Procedure: as §1, §2, §3

[3] = test system: new onset diabetic NOD mice; test: Treatment of new onset diabetic NOD mice, blood glucose monitoring (normoglycemia); type: in vivo, mouse
Source text: Female NOD (NOD/LtJx) mice and NOD.SCID (NOD.CB17-Prkdc^scid/J) were purchased from Jackson Laboratories (Bar Harbor, Me.) at 4 weeks of age and maintained under pathogen-free conditions in a conventional animal facility at Massachusetts General Hospital (Boston, Mass.). All animal studies were approved by our institutional review boards. The blood glucose levels of NOD mice were monitored weekly with the ACCU-CHECK® blood glucose monitor system (Roche, Indianapolis, Ind.). […] For syngeneic islet transplant recipients, blood glucose levels were checked at the time of transplantation, then daily for the first two weeks, and then 2 to 3 times per week afterward.
ARALAST™ (α1-proteinase inhibitor, human) is a major serum serine-protease inhibitor that inhibits the enzymatic activity of neutrophil elastase, cathespin G, proteinase 3, thrombin, trypsin, and chymotrypsin. ARALAST™ was purchased from Baxter (Westlake Village, Calif.) and was given at a dose of 2 mg i.p. every 3 days, for a total of 5 injections.

[4] = cited from earlier work
[5] = test system: 1-AZT, a misfolded but functionally active mutant of α1-antitrypsin; conditions: model cell culture system; cited from earlier work
[6] = subcutaneous injection of 25 mg twice a week; average; cited from earlier work

Molecule: Aralast ™: α1-proteinase inhibitor, human; major serum serine-protease inhibitor, purchased from Baxter
- Phosphorylation of insulin receptor substrate-1 (IRS-1) [1]: restored
- Tyrosyl-phosphorylation of insulin receptor (IR) [2]: restored
- Days after treatment (how long the animals have been normoglycemic) ([3]; animals still alive at writing): 90 to 300 days

Molecule: AAT: α1-antitrypsin, plasma serine protease inhibitor (serpin)
- Half life in plasma [4]: approximately six
- Effect of a short course on glycemia [3]: restores normoglycemia

Molecule: O=C(O)CCCc1ccccc1 [PBA, 4-phenylbutyric acid]
- Secretion of 1-AZT [5]: marked increase

Molecule: Etanercept
- Time to peak blood levels [6]: 72 h
